Data on three compounds can be found in US6951733B2, “Method for testing drug susceptibility of Mycobacterium tuberculosis” (priority 2000, dated 2005).

Experiment [1] concerns 13 M. tuberculosis pan-susceptible strains. The experiment is described as follows: MIC determination on HSTB agar, susceptible strains. The format is cell-based. To be noted: for MIC: Mycobacterium tuberculosis, HSTB agar.
Experiment [2] concerns 55 M. tuberculosis clinical isolates. In kind it is cell-based.
For experiment [3], the system named is 13 M. tuberculosis pan-susceptible strains. To be noted: adopted for 7H11 agar; cited from earlier work.
Where [4] appears, read: strains Susceptible by the BACTEC 300 μg/ml.
Setting [5] is: strains Susceptible by the BACTEC 900 μg/ml.

≈ marks a conversion by molar mass, not a printed value. Read-outs that look alike come from different tables or passages of the source.

As to `NNC(=O)c1ccncc1` [INH, isoniazid], the MIC in experiment [1] (0.2: 13 strains, read-out: MICs (mcg/ml) of INH for 13 Susceptible Strains, HSTB) is 0.2 µg/mL (≈ 1.46 µM); in experiment [1] (all 13 strains, read-out: MIC of INH) it was 0.2 µg/mL.
For `NC(=O)c1cnccn1` [PZA, pyrazinamide], in experiment [2] (setting [4]), the “Number of strains by the agar proportion method, 900 μg/ml Susceptible” value is on record as 25 and the “Number of strains by the agar proportion method, 1200 μg/ml Susceptible” value was determined as 25. For the same compound, in experiment [2] (setting [5]), the “Number of strains by the agar proportion method, 900 μg/ml Susceptible” value came out at 26 and the “Number of strains by the agar proportion method, 1200 μg/ml Susceptible” value stood at 27.
Take `CO[C@H]1/C=C/O[C@@]2(C)Oc3c(C)c(O)c4c(O)c(c(/C=N/N5CCN(C)CC5)c(O)c4c3C2=O)NC(=O)/C(C)=C\C=C\[C@H](C)[C@H](O)[C@@H](C)[C@@H](O)[C@@H](C)[C@H](OC(C)=O)[C@@H]1C` [RMP, rifampin]: the results for the “critical concentration of RMP” value in experiment [1] and in experiment [3] were 2.0 µg/mL and 1.0 µg/mL, respectively.
